The record followed here is patent EP4289427A1, “DIHYDRO[1,8]NAPHTHYRIDIN-7-ONE AND PYRIDO[3,2-B][1,4]OXAZIN-3-ONE FOR USE IN TREATING CANCER, AND METASTASES IN PARTICULAR” (Anagenesis Biotechnologies, priority 2022, dated 2023).

For one data set, the system named is EoL-1 cells. As to the kind of experiment: Cytotoxicity assay (CellTiter-Glo 2.0) on EoL-1 cells. The format is cell-based, Human. Particulars: incubation 1 day; for IC50: Homo sapiens, EOL1, 24 h. Summed up: (§1)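 Compound-treated cells, incubation time varying by line; CellTiter-Glo 2.0 ATP luminescence; relative IC50.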
For the next data set, the system named is 4T1 cells. Put plainly: Cytotoxicity assay (CellTiter-Glo 2.0) on 4T1 cells. The following applies: incubation 2 days; for IC50: Mus musculus, 48 h. The format is cell-based, Mouse. Summed up:
as §1
(ATP-based viability assays read luminescence as a measure of living cells.)

In the next data set the test system is MDA-MB-231 cells. Put plainly: Cytotoxicity assay (CellTiter-Glo 2.0) on MDA-MB-231 cells. The format is cell-based, Human. Particulars: incubation 3 days; for IC50: Homo sapiens, 72 h. Summed up: as §1
The next data set relates to HUVECs. As to the kind of experiment: Tube formation assay (anti-angiogenic activity). The format is cell-based, human. Particulars: for IC50: Homo sapiens, HUVEC. A digest of the protocol:
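HUVECs plated at 5000 cells/well on reduced growth factor basement membrane matrix, then exposed to compounds for 16 to 18 hours at 37°C. Cells stained with calcein-AM; tube networks imaged by confocal fluorescence microscopy and quantified.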

Another data set relates to RD cells. As to the kind of experiment: Cytotoxicity assay (CellTiter-Glo 2.0) on RD cells. The format is cell-based, Human. Particulars: for IC50: Homo sapiens. Summed up: as §1

The structures appear in SMILES notation.

Consider `CSc1cc(Oc2ccnc3c2OCC(=O)N3)ccc1NC(=O)Nc1cc(C(C)(C)C)nn1-c1cccc(F)c1` [Compound 012, 1-[5-tert-butyl-2-(3-fluorophenyl)pyrazol-3-yl]-3-[2-methylsulfanyl-4-[(3-oxo-4H-pyrido[3,2-b][1,4]oxazin-8-yl)oxy]phenyl]urea], for which the IC50 in the data set on EoL-1 cells was 1 to 10 nM; in the data set on 4T1 cells, 1000 to 5000 nM; in the data set on MDA-MB-231 cells, 1000 to 5000 nM; in the data set on HUVECs (incubation 16 to 18 hours), below 100 nM; in the data set on RD cells (48 h, 2 day-treatment), 1000 to 5000 nM; with RD cells (96 h, 4 day-treatment) it was 5000 to 10000 nM. The Cytotoxicity result with EoL-1 cells is on record as “++ (50% ≤ cytotoxicity < 85%)”; in the data set on 4T1 cells, “+++ (cytotoxicity ≥ 85%)”; in the data set with MDA-MB-231 cells it was “++ (50% ≤ cytotoxicity < 85%)”; with RD cells (2 day-treatment) it was “++ (50% ≤ cytotoxicity < 85%)”; in the data set on RD cells (4 day-treatment), “++ (50% ≤ cytotoxicity < 85%)”. In addition, the Angiogenesis inhibition result in the data set on HUVECs (incubation 16 to 18 hours) is “+++ (angiogenesis inhibition ≥ 80%)”.
For `CNC(=O)c1cc(Oc2ccc(NC(=O)Nc3ccc(Cl)c(C(F)(F)F)c3)c(F)c2)ccn1` [Regorafenib, reference compound], the half-inhibitory concentration (IC50) in the data set with EoL-1 cells (commercial kinase inhibitors) was 1 to 10 nM; in the data set with 4T1 cells (commercial kinase inhibitors), 5000 to 10000 nM; in the data set with MDA-MB-231 cells (commercial kinase inhibitors), 1000 to 5000 nM; with HUVECs (commercial kinase inhibitors), below 100 nM; in the data set on RD cells (48 h, 2 day-treatment, commercial kinase inhibitors), 5000 to 10000 nM; in the data set with RD cells (96 h, 4 day-treatment, commercial kinase inhibitors) it was 1000 to 5000 nM. Besides, the Cytotoxicity entry in the data set with EoL-1 cells (commercial kinase inhibitors) is “+++ (cytotoxicity ≥ 85%)”; in the data set on 4T1 cells (commercial kinase inhibitors) it was “++ (50 % ≤ cytotoxicity < 85 %)”; in the data set with MDA-MB-231 cells (commercial kinase inhibitors), “++ (50 % ≤ cytotoxicity < 85 %)”; in the data set with RD cells (2 day-treatment, commercial kinase inhibitors), “+ (20 % ≤ cytotoxicity < 50 %)”; in the data set on RD cells (4 day-treatment, commercial kinase inhibitors) it was “+ (20 % ≤ cytotoxicity < 50 %)”. Moreover, the Angiogenesis inhibition entry in the data set with HUVECs (commercial kinase inhibitors) is recorded as “++ (80% > angiogenesis inhibition ≥ 50%)”.
Regarding `CSc1cc(Oc2ccnc3c2CCC(=O)N3)ccc1NC(=O)Nc1cc(C(C)(C)C)nn1-c1ccc(CN(C)C)cc1` [Compound 046, 1-[5-tert-butyl-2-[4-(dimethylaminomethyl)phenyl]pyrazol-3-yl]-3-[2-methylsulfanyl-4-[(7-oxo-6,8-dihydro-5H-1,8-naphthyridin-4-yl)oxy]phenyl]urea], the IC50 was below 1 nM in the data set with EoL-1 cells; below 1000 nM in the data set with 4T1 cells; 1000 to 5000 nM in the data set with MDA-MB-231 cells; below 100 nM in the data set with HUVECs (incubation 16 to 18 hours); 5000 to 10000 nM in the data set with RD cells (48 h, 2 day-treatment); 1000 to 5000 nM with RD cells (96 h, 4 day-treatment). The Cytotoxicity entry in the data set with EoL-1 cells, with 4T1 cells, in the data set with MDA-MB-231 cells, with RD cells (2 day-treatment) and in the data set on RD cells (4 day-treatment) was “+++ (cytotoxicity ≥ 85%)” throughout. The Angiogenesis inhibition entry in the data set with HUVECs (incubation 16 to 18 hours) is on record as “+++ (angiogenesis inhibition ≥ 80%)”.
With `CN(C)Cc1ccc(-n2nc(C(C)(C)C)cc2NC(=O)Nc2ccc(Oc3ccnc4c3CCC(=O)N4)cc2C(F)(F)F)cc1` [Compound 034, 1-[5-tert-butyl-2-[4-[(dimethylamino)methyl]phenyl]pyrazol-3-yl]-3-[4-[(7-oxo-6,8-dihydro-5H-1,8-naphthyridin-4-yl)oxy]-2-(trifluoromethyl)phenyl]urea], the IC50 is 1 to 10 nM with EoL-1 cells; below 1000 nM in the data set on 4T1 cells; 1000 to 5000 nM in the data set with MDA-MB-231 cells; below 100 nM in the data set with HUVECs (incubation 16 to 18 hours); 1000 to 5000 nM with RD cells (48 h, 2 day-treatment); 1000 to 5000 nM in the data set on RD cells (96 h, 4 day-treatment). The Cytotoxicity result with EoL-1 cells is “++ (50% ≤ cytotoxicity < 85%)”; in the data set with 4T1 cells, “+++ (cytotoxicity ≥ 85%)”; in the data set with MDA-MB-231 cells it was “+++ (cytotoxicity ≥ 85%)”; in the data set on RD cells (2 day-treatment), “+++ (cytotoxicity ≥ 85%)”; in the data set on RD cells (4 day-treatment), “+++ (cytotoxicity ≥ 85%)”. Also, the Angiogenesis inhibition result with HUVECs (incubation 16 to 18 hours) is “+++ (angiogenesis inhibition ≥ 80%)”.
For `CC(C)(C)c1cc(NC(=O)Nc2ccc(Oc3ccnc4c3OCC(=O)N4)cc2C(F)(F)F)n(-c2ccc(CN3CCOCC3)cc2)n1` [Compound 043, 1-[5-tert-butyl-2-[4-(morpholinomethyl)phenyl]pyrazol-3-yl]-3-[4-[(3-oxo-4H-pyrido[3,2-b][1,4]oxazin-8-yl)oxy]-2-(trifluoromethyl)phenyl]urea], the IC50 is 10 to 100 nM with EoL-1 cells; 1000 to 5000 nM in the data set on 4T1 cells; 5000 to 10000 nM in the data set on MDA-MB-231 cells; 100 to 500 nM in the data set on HUVECs (incubation 16 to 18 hours); at least 10000 nM in the data set with RD cells (48 h, 2 day-treatment); at least 10000 nM with RD cells (96 h, 4 day-treatment). Moreover, the Cytotoxicity entry in the data set on EoL-1 cells is “++ (50% ≤ cytotoxicity < 85%)”; in the data set with 4T1 cells, “+++ (cytotoxicity ≥ 85%)”; in the data set with MDA-MB-231 cells it was “++ (50% ≤ cytotoxicity < 85%)”; in the data set with RD cells (2 day-treatment) it was “+ (20 % ≤ cytotoxicity < 50%)”; in the data set with RD cells (4 day-treatment) it was “+ (20 % ≤ cytotoxicity < 50%)”. Moreover, in the data set with HUVECs (incubation 16 to 18 hours), the Angiogenesis inhibition result was “+++ (angiogenesis inhibition ≥ 80%)”.
As to `CC(C)(C)c1cc(NC(=O)Nc2ccc(Oc3ccnc4c3CCC(=O)N4)cc2C(F)(F)F)n(-c2cccc(CN3CCOCC3)c2)n1` [Compound 045, 1-[5-tert-butyl-2-[3-(morpholinomethyl)phenyl]pyrazol-3-yl]-3-[4-[(7-oxo-6,8-dihydro-5H-1,8-naphthyridin-4-yl)oxy]-2-(trifluoromethyl)phenyl]urea], the IC50 in the data set with EoL-1 cells is 10 to 100 nM; with 4T1 cells, below 1000 nM; with MDA-MB-231 cells, 1000 to 5000 nM; with HUVECs (incubation 16 to 18 hours), 100 to 500 nM; in the data set on RD cells (48 h, 2 day-treatment) it was 5000 to 10000 nM; in the data set on RD cells (96 h, 4 day-treatment), 5000 to 10000 nM. The Cytotoxicity result with EoL-1 cells was “++ (50% ≤ cytotoxicity < 85%)”; in the data set with 4T1 cells, “+++ (cytotoxicity ≥ 85%)”; with MDA-MB-231 cells, “++ (50% ≤ cytotoxicity < 85%)”; in the data set with RD cells (2 day-treatment), “+ (20 % ≤ cytotoxicity < 50%)”; in the data set with RD cells (4 day-treatment), “+ (20 % ≤ cytotoxicity < 50%)”. Besides, the Angiogenesis inhibition entry in the data set with HUVECs (incubation 16 to 18 hours) is given as “+++ (angiogenesis inhibition ≥ 80%)”.
Consider `CSc1cc(Oc2ccnc3c2CCC(=O)N3)ccc1NC(=O)Nc1cc(C(C)(C)C)nn1-c1ccc(CN2CCOCC2)cc1` [Compound 042, 1-[5-tert-butyl-2-[4-(morpholinomethyl)phenyl]pyrazol-3-yl]-3-[2-methylsulfanyl-4-[(7-oxo-6,8-dihydro-5H-1,8-naphthyridin-4-yl)oxy]phenyl]urea], for which the IC50 in the data set with EoL-1 cells was 1 to 10 nM; with 4T1 cells, below 1000 nM; with MDA-MB-231 cells, 1000 to 5000 nM; with HUVECs (incubation 16 to 18 hours), below 100 nM; in the data set with RD cells (48 h, 2 day-treatment) it was 1000 to 5000 nM; with RD cells (96 h, 4 day-treatment), 1000 to 5000 nM. The Cytotoxicity entry is “+++ (cytotoxicity ≥ 85%)” in the data set with EoL-1 cells; “+++ (cytotoxicity ≥ 85%)” in the data set with 4T1 cells; “++ (50% ≤ cytotoxicity < 85%)” in the data set on MDA-MB-231 cells; “++ (50% ≤ cytotoxicity < 85%)” with RD cells (2 day-treatment); “++ (50% ≤ cytotoxicity < 85%)” with RD cells (4 day-treatment). Besides, the Angiogenesis inhibition entry with HUVECs (incubation 16 to 18 hours) is reported as “+++ (angiogenesis inhibition ≥ 80%)”.
In the case of `Cc1ccc(-n2nc(C(C)(C)C)cc2NC(=O)Nc2ccc(Oc3ccnc4c3OCC(=O)N4)cc2C(F)(F)F)cc1` [Compound 011, 1-[5-tert-butyl-2-(p-tolyl)pyrazol-3-yl]-3-[4-[(3-oxo-4H-pyrido[3,2-b][1,4]oxazin-8-yl)oxy]-2-(trifluoromethyl)phenyl]urea], the IC50 with EoL-1 cells is 10 to 100 nM; in the data set with 4T1 cells, 1000 to 5000 nM; with MDA-MB-231 cells, 1000 to 5000 nM; in the data set with HUVECs (incubation 16 to 18 hours), 100 to 500 nM; with RD cells (48 h, 2 day-treatment), 5000 to 10000 nM; with RD cells (96 h, 4 day-treatment), at least 10000 nM. Further, the Cytotoxicity entry is listed as “++ (50% ≤ cytotoxicity < 85%)” in the data set with EoL-1 cells; “+++ (cytotoxicity ≥ 85%)” in the data set with 4T1 cells; “++ (50% ≤ cytotoxicity < 85%)” in the data set with MDA-MB-231 cells; “+ (20 % ≤ cytotoxicity < 50%)” in the data set with RD cells (2 day-treatment); “+ (20 % ≤ cytotoxicity < 50%)” with RD cells (4 day-treatment). For the same compound, in the data set on HUVECs (incubation 16 to 18 hours), the Angiogenesis inhibition entry was “+++ (angiogenesis inhibition ≥ 80%)”.
Regarding `CSc1cc(Oc2ccnc3c2CCC(=O)N3)ccc1NC(=O)Nc1cncc(C(F)(F)F)c1` [Compound 005, 1-(2-(methylthio)-4-((7-oxo-5,6,7,8-tetrahydro-1,8-naphthyridin-4-yl)oxy)phenyl)-3-(5-(trifluoromethyl)pyridin-3-yl)urea], the IC50 with EoL-1 cells was below 1 nM; in the data set with 4T1 cells, 5000 to 10000 nM; with MDA-MB-231 cells, 1000 to 5000 nM; in the data set with HUVECs (incubation 16 to 18 hours), 100 to 500 nM; in the data set on RD cells (48 h, 2 day-treatment), 1000 to 5000 nM; with RD cells (96 h, 4 day-treatment), 1000 to 5000 nM. In addition, the Cytotoxicity entry in the data set on EoL-1 cells is on record as “+++ (cytotoxicity ≥ 85%)”; in the data set with 4T1 cells it was “++ (50% ≤ cytotoxicity < 85%)”; in the data set with MDA-MB-231 cells, “++ (50% ≤ cytotoxicity < 85%)”; in the data set with RD cells (2 day-treatment), “+ (20 % ≤ cytotoxicity < 50%)”; in the data set on RD cells (4 day-treatment), “++ (50% ≤ cytotoxicity < 85%)”. Also, the Angiogenesis inhibition entry in the data set with HUVECs (incubation 16 to 18 hours) is on record as “++ (80% > angiogenesis inhibition ≥ 50%)”.

For orientation: IC50 means the point on the concentration scale where inhibition reaches its midpoint.
